Results: publication PMC3433420 (PLoS ONE, 2012)
Residues, ends and D or L forms follow the SMILES beside them.

Tests used:
VAV2 SH2 domain = VAV2 SH2 domain (Homo sapiens, UniProt P52735); experiment: FP saturation binding assay
PLCG1-N SH2 domain = PLCG1-N SH2 domain (Homo sapiens, UniProt P19174); experiment: FP saturation binding assay
SH2D2A SH2 domain = SH2D2A SH2 domain (Homo sapiens, UniProt Q9NP31); experiment: FP saturation binding assay
FGR SH2 domain = target: T1, FGR SH2 domain (Homo sapiens, UniProt P09769); experiment: FP saturation binding assay; details: Protein FGR, high-confidence ErbB interactions, mean over replicate hits
T1 construct: 93 SH2 and 2 PTB domain-containing constructs; 6X His; thioredoxin; made in house; host or cells: E. coli BL21(DE3)pLysS
T1 sequence (P09769 144-241 limits assumed): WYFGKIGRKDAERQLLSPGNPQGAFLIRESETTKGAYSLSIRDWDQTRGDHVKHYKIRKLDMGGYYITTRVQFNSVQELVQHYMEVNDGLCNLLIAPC
Method in brief: (§1)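 Rhodamine-labeled phosphopeptides (10 nM final) titrated with SH2 domain protein (0.002–10 µM, 12 points) in 20 mM HEPES, 100 mM KCl, 0.1% Tween-20, 5 mM DTT, pH 7.8; 20 min, room temperature, dark. FP read at 530/555 nm; KD fitted by nonlinear regression after thioredoxin background correction and outlier removal.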

BLK SH2 domain = BLK SH2 domain (Homo sapiens, UniProt P51451); experiment: FP saturation binding assay
Chain of BLK SH2 domain (P51451 124-220 limits assumed): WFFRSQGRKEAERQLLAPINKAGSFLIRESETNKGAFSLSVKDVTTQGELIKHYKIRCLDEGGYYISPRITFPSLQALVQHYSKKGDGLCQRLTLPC

HCK SH2 domain = target: T2, HCK SH2 domain (Homo sapiens, UniProt P08631); experiment: FP saturation binding assay; details: protein HCK, high-confidence ErbB interactions, mean of replicate hits
T2 construct: 93 SH2 and 2 PTB domain-containing constructs; 6X His; thioredoxin; made in house; host or cells: E. coli BL21(DE3)pLysS
T2 sequence (P08631 144-241 limits assumed): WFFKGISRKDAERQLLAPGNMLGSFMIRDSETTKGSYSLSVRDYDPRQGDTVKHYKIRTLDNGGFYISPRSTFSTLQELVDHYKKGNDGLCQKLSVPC
Method in brief: as §1

BLNK SH2 domain = BLNK SH2 domain (Homo sapiens, UniProt Q8WV28); experiment: FP saturation binding assay
Chain of BLNK SH2 domain (Q8WV28 346-453 limits assumed): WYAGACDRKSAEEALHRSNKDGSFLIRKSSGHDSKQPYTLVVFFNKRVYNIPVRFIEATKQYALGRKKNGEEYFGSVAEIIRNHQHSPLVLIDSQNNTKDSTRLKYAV

NCK2 SH2 domain = NCK2 SH2 domain (Homo sapiens, UniProt O43639); experiment: FP saturation binding assay
Chain of NCK2 SH2 domain (O43639 285-380 limits assumed): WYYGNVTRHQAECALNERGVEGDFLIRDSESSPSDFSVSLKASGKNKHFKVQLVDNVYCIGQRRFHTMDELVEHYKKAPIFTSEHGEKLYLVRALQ

PIK3R1-C SH2 domain = target: T3, PIK3R1-C SH2 domain (Homo sapiens, UniProt P27986); experiment: FP saturation binding assay; details: protein PIK3R1-C, high-confidence ErbB interactions, mean of replicate hits
T3 construct: 6X His; thioredoxin; made in house; host or cells: E. coli BL21(DE3)pLysS
T3 sequence (P27986 624-718 limits assumed): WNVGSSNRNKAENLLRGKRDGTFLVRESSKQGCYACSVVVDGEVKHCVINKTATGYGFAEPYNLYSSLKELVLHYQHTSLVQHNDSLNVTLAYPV
Method in brief: as §1

ABL2 SH2 domain = target: T4, ABL2 SH2 domain (Homo sapiens, UniProt P42684); experiment: FP saturation binding assay; details: protein ABL2, high-confidence ErbB interactions, mean of replicate hits
T4 construct: 93 SH2 and 2 PTB domain-containing constructs; 6X His; thioredoxin; made in house; host or cells: E. coli BL21(DE3)pLysS
T4 sequence (P42684 173-263 limits assumed): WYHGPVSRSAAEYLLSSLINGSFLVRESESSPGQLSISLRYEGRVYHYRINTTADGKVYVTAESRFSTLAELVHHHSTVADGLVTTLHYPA
Method in brief: as §1

SRC SH2 domain = target: T5, SRC SH2 domain (Homo sapiens, UniProt P12931); experiment: FP saturation binding assay; details: protein SRC; high-confidence ErbB interactions; mean of replicate hits
T5 construct: between the c-Src SH2 domain and ErbB1 in our FP assay; 6X His; thioredoxin; made in house; host or cells: E. coli BL21(DE3)pLysS
T5 sequence (P12931 151-248 limits assumed): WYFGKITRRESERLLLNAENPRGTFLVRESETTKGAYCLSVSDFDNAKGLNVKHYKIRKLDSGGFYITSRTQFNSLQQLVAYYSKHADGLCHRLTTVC
Method in brief: as §1

HSH2D SH2 domain = target: T6, HSH2D SH2 domain (Homo sapiens, UniProt Q96JZ2); experiment: FP saturation binding assay
T6 sequence (Q96JZ2 34-125 limits assumed): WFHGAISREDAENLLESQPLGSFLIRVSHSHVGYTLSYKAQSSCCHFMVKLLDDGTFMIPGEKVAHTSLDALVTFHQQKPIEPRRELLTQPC

SHC1 SH2 domain = SHC1 SH2 domain (Homo sapiens, UniProt P29353); experiment: FP saturation binding assay
Chain of SHC1 SH2 domain (P29353 488-579 limits assumed): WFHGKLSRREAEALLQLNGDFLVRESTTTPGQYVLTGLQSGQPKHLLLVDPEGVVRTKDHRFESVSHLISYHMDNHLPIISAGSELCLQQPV

GRB7 SH2 domain = GRB7 SH2 domain (Homo sapiens, UniProt Q14451); design: 6X His; thioredoxin; made in house; host or cells: E. coli BL21(DE3)pLysS; details: previous protein microarray data, Figure S5; cited from earlier work
Chain of GRB7 SH2 domain (Q14451 431-527 limits assumed): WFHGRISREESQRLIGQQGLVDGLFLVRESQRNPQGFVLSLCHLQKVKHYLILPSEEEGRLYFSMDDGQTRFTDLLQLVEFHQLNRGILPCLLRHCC

Chain of PLCG1-N SH2 domain (P19174 550-657 limits assumed): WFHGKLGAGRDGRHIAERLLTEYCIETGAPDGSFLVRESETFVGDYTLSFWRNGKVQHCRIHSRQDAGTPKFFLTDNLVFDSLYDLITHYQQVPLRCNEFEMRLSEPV
Chain of VAV2 SH2 domain (P52735 673-767 limits assumed): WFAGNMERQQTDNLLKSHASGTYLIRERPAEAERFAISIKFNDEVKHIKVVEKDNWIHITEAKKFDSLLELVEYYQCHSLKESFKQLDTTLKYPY
Chain of SH2D2A SH2 domain (Q9NP31 95-186 limits assumed): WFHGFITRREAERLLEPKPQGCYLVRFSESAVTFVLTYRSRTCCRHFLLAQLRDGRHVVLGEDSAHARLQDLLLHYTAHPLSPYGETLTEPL

For `CC(C)C[C@H](NC(=O)[C@H](Cc1ccc(OP(=O)(O)O)cc1)NC(=O)[C@H](CCC(=O)O)NC(=O)[C@H](CCC(=O)O)NC(=O)[C@H](C)NC(=O)[C@@H](N)CC(=O)O)C(=O)N[C@H](C(=O)N1CCC[C@H]1C(=O)N[C@@H](CCC(N)=O)C(=O)N[C@@H](CCC(N)=O)C(=O)NCC(=O)N[C@@H](Cc1ccccc1)C(=O)N[C@@H](CC(=O)O)C(=O)O)C(C)C` [ErbB2 1023 13-mer] (HELM PEPTIDE1{D.A.E.E.[O=C([C@H](Cc1ccc(OP(=O)(O)O)cc1)N[*:1])[*:2]].L.V.P.Q.Q.G.F.D}$$$$V2.0), which Kd (VAV2 SH2 domain) is on record?
The Kd was 9.9 µM.

For `CC(C)[C@H](NC(=O)[C@H](CC(=O)O)NC(=O)[C@@H]1CCCN1C(=O)[C@H](CCC(N)=O)NC(=O)[C@H](CC(N)=O)NC(=O)[C@@H](NC(=O)[C@H](Cc1ccc(OP(=O)(O)O)cc1)NC(=O)[C@H](CCC(=O)O)NC(=O)[C@@H]1CCCN1C(=O)[C@H](CCC(N)=O)NC(=O)[C@@H]1CCCN1)C(C)C)C(=O)N[C@@H](CCCNC(=N)N)C(=O)N[C@@H](CC(=O)O)C(=O)O` [ErbB2 1139 13-mer] (HELM PEPTIDE1{P.Q.P.E.[O=C([C@H](Cc1ccc(OP(=O)(O)O)cc1)N[*:1])[*:2]].V.N.Q.P.D.V.R.D}$$$$V2.0), which Kd (PLCG1-N SH2 domain) is on record?
The Kd was 11.8 µM.

And the Kd (SH2D2A SH2 domain)?
The Kd was 4.8 µM.

Which Kd (FGR SH2 domain) does the source give for `CC(C)C[C@H](NC(=O)[C@H](CC(N)=O)NC(=O)[C@@H](N)CC(=O)O)C(=O)N[C@@H](Cc1ccc(O)cc1)C(=O)N[C@@H](Cc1ccc(OP(=O)(O)O)cc1)C(=O)N[C@@H](Cc1c[nH]c2ccccc12)C(=O)N[C@@H](CC(=O)O)C(=O)N[C@@H](CCC(N)=O)C(=O)N[C@@H](CC(=O)O)C(=O)N1CCC[C@H]1C(=O)N1CCC[C@H]1C(=O)N[C@@H](CCC(=O)O)C(=O)N[C@@H](CC(=O)O)C(=O)O` [ErbB2 1222 13-mer] (HELM PEPTIDE1{D.N.L.Y.[O=C([C@H](Cc1ccc(OP(=O)(O)O)cc1)N[*:1])[*:2]].W.D.Q.D.P.P.E.D}$$$$V2.0) here?
Its Kd is 8.34 µM.

What about the Kd (BLK SH2 domain) of the same compound?
The Kd was 10.9 µM.

With `CSCC[C@H](NC(=O)[C@H](Cc1ccc(OP(=O)(O)O)cc1)NC(=O)[C@H](CCC(=O)O)NC(=O)[C@H](Cc1ccc(O)cc1)NC(=O)CNC(=O)[C@@H](N)CC(C)C)C(=O)N[C@@H](CC(=O)O)C(=O)N[C@H](C(=O)NCC(=O)N[C@@H](CO)C(=O)N[C@@H](CC(=O)O)C(=O)N[C@@H](CC(C)C)C(=O)N[C@@H](CC(=O)O)C(=O)O)C(C)C` [ErbB3 1224 13-mer] (HELM PEPTIDE1{L.G.Y.E.[O=C([C@H](Cc1ccc(OP(=O)(O)O)cc1)N[*:1])[*:2]].M.D.V.G.S.D.L.D}$$$$V2.0) as the compound, how does the Kd (HCK SH2 domain) read?
Its Kd is 10.9 µM.

And the Kd (BLNK SH2 domain)?
The Kd was 3.63 µM.

And the Kd (NCK2 SH2 domain)?
The Kd was 4.6 µM.

With `CSCC[C@H](NC(=O)[C@H](CCC(=O)O)NC(=O)[C@H](CCC(=O)O)NC(=O)[C@H](Cc1ccc(OP(=O)(O)O)cc1)NC(=O)CNC(=O)[C@H](CCC(N)=O)NC(=O)[C@H](CCC(=O)O)NC(=O)[C@@H](N)CO)C(=O)N[C@@H](CCCNC(=N)N)C(=O)N[C@@H](C)C(=O)N[C@@H](Cc1ccccc1)C(=O)N[C@@H](CCC(N)=O)C(=O)N[C@@H](CC(=O)O)C(=O)O` [ErbB3 1289 13-mer] (HELM PEPTIDE1{S.E.Q.G.[O=C([C@H](Cc1ccc(OP(=O)(O)O)cc1)N[*:1])[*:2]].E.E.M.R.A.F.Q.D}$$$$V2.0) as the compound, how does the Kd (PIK3R1-C SH2 domain) read?
The Kd was 0.2 µM.

For `CSCC[C@H](NC(=O)[C@H](Cc1ccc(OP(=O)(O)O)cc1)NC(=O)CNC(=O)[C@H](CCC(=O)O)NC(=O)[C@H](CCC(=O)O)NC(=O)[C@H](CC(=O)O)NC(=O)[C@H](CC(C)C)NC(=O)[C@H](CCC(=O)O)NC(=O)CNC(=O)[C@H](CCCNC(=N)N)NC(=O)[C@@H]1CCCN1)C(=O)N[C@H](C(=O)N1CCC[C@H]1C(=O)N[C@@H](CCSC)C(=O)N[C@@H](CCCNC(=N)N)C(=O)N[C@@H](CC(=O)O)C(=O)N[C@@H](CCCCN)C(=O)N[C@@H](CC(=O)O)C(=O)O)[C@@H](C)O` [ErbB4 1150 18-mer] (HELM PEPTIDE1{P.R.G.E.L.D.E.E.G.[O=C([C@H](Cc1ccc(OP(=O)(O)O)cc1)N[*:1])[*:2]].M.T.P.M.R.D.K.D}$$$$V2.0), which Kd (ABL2 SH2 domain) is on record?
Its Kd is 8.25 µM.

Which Kd (SRC SH2 domain) does the source give for `CC(C)C[C@H](NC(=O)[C@H](Cc1ccc(OP(=O)(O)O)cc1)NC(=O)[C@H](CC(C)C)NC(=O)[C@@H]1CCCN1C(=O)[C@H](CCC(=O)O)NC(=O)[C@H](CC(N)=O)NC(=O)[C@@H](NC(=O)[C@H](Cc1ccc(O)cc1)NC(=O)[C@H](CCC(=O)O)NC(=O)[C@H](CC(=O)O)NC(=O)[C@@H](N)CCC(=O)O)C(C)C)C(=O)N[C@@H](CC(N)=O)C(=O)N[C@H](C(=O)N[C@@H](Cc1ccccc1)C(=O)N[C@@H](C)C(=O)N[C@@H](CC(N)=O)C(=O)N[C@H](C(=O)N[C@@H](CC(=O)O)C(=O)O)[C@@H](C)O)[C@@H](C)O` [ErbB4 1208 18-mer] (HELM PEPTIDE1{E.D.E.Y.V.N.E.P.L.[O=C([C@H](Cc1ccc(OP(=O)(O)O)cc1)N[*:1])[*:2]].L.N.T.F.A.N.T.D}$$$$V2.0) here?
The Kd was 5.84 µM.

And the Kd (HSH2D SH2 domain)?
The Kd was 1.14 µM.

What about the Kd (SHC1 SH2 domain) of the same compound?
The Kd was 11 µM.

With “DNLYpYWDQDPPEd [ErbB2 pY1222, N-terminally rhodamine-labeled 13-mer phosphopeptide]” as the compound, how does the “interaction with GRB7 on the PM platform” value (GRB7 SH2 domain) read?
The value was “only displayed interactions with GRB7 from the PM platform”.
